Results reported in US20140213513A1 (Sanofi, priority 2012, published 2014).
*1 amine or outer side, *2 acyl side, *3 side chain or, on linkers, in order; H or OH if unused. Where a SMILES comes first, the peptide text is derived from it. Where no end group is shown, it is not given here. Side-chain parts run from the residue outwards. [ ]: non-standard residue; d: D form. The star is where a group is joined. γGlu = O=C(O)[C@H](CCC(=O)[*:2])N[*:1]; Stearoyl = CCCCCCCCCCCCCCCCCC(=O)*; Palmitoyl = CCCCCCCCCCCCCCCC(=O)*; Aib = CC(C)(N)C(=O)O

B1: exendin-4 peptide analogue SEQ ID NO: 37 (peptide)
peptide: Y[Aib]EGTFTSDLSIQK([γGlu-Palmitoyl])EERAAHEFIEWLKR[Aib]GPSSGAPPPS-NH2
modifications: N-terminus assumed
SMILES: CCCCCCCCCCCCCCCC(=O)N[C@@H](CCC(=O)NCCCC[C@H](NC(=O)[C@H](CCC(N)=O)NC(=O)[C@@H](NC(=O)[C@H](CO)NC(=O)[C@H](CC(C)C)NC(=O)[C@H](CC(=O)O)NC(=O)[C@H](CO)NC(=O)[C@@H](NC(=O)[C@H](Cc1ccccc1)NC(=O)[C@@H](NC(=O)CNC(=O)[C@H](CCC(=O)O)NC(=O)C(C)(C)NC(=O)[C@@H](N)Cc1ccc(O)cc1)[C@@H](C)O)[C@@H](C)O)[C@@H](C)CC)C(=O)N[C@@H](CCC(=O)O)C(=O)N[C@@H](CCC(=O)O)C(=O)N[C@@H](CCCNC(=N)N)C(=O)N[C@@H](C)C(=O)N[C@@H](C)C(=O)N[C@@H](Cc1c[nH]cn1)C(=O)N[C@@H](CCC(=O)O)C(=O)N[C@@H](Cc1ccccc1)C(=O)N[C@H](C(=O)N[C@@H](CCC(=O)O)C(=O)N[C@@H](Cc1c[nH]c2ccccc12)C(=O)N[C@@H](CC(C)C)C(=O)N[C@@H](CCCCN)C(=O)N[C@@H](CCCNC(=N)N)C(=O)NC(C)(C)C(=O)NCC(=O)N1CCC[C@H]1C(=O)N[C@@H](CO)C(=O)N[C@@H](CO)C(=O)NCC(=O)N[C@@H](C)C(=O)N1CCC[C@H]1C(=O)N1CCC[C@H]1C(=O)N1CCC[C@H]1C(=O)N[C@@H](CO)C(N)=O)[C@@H](C)CC)C(=O)O

What was measured:
[1] = molecular target: T1, human GIP receptor (hGIP R) (Homo sapiens, UniProt P48546); test: cAMP response of HEK-293 cells stably expressing human GIP receptor (HTRF); format: cell-based; details: Table 7; cAMP formation
T1 construct: expressed in transfected cells
T1 sequence (P48546 22-466): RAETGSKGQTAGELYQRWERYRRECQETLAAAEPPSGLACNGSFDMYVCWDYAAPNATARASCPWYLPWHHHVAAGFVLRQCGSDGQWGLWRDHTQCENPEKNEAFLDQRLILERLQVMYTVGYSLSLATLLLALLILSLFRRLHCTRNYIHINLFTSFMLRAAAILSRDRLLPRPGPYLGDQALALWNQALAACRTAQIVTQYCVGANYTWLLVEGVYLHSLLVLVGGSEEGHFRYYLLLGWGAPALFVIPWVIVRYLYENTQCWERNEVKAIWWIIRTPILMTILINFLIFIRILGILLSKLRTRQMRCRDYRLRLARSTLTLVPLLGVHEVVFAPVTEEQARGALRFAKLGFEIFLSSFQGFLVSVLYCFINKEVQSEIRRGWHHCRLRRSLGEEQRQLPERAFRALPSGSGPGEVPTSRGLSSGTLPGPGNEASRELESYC
Experimental: (§1) cAMP content of cells was determined using a kit from Cisbio Corp. (cat. no. 62AM4PEC) based on HTRF (Homogenous Time Resolved Fluorescence). For preparation, cells were split into T175 culture flasks and grown overnight to near confluency in medium (DMEM/10% FBS). Medium was then removed and cells washed with PBS lacking calcium and magnesium, followed by proteinase treatment with accutase (Sigma-Aldrich cat. no. A6964). Detached cells were washed and resuspended in assay buffer (1×HBSS; 20 mM HEPES, 0.1% BSA, 2 mM IBMX) and cellular density determined. They were then diluted to 400000 cells/ml and 25 μl-aliquots dispensed into the wells of 96-well plates. For measurement, 25 μl of test compound in assay buffer was added to the wells, followed by incubation for 30 minutes at room temperature.

[2] = molecular target: T2, human GLP-1 receptor (hGLP-1 R) (Homo sapiens, UniProt P43220); test: cAMP response of HEK-293 cells stably expressing human GLP-1 receptor (HTRF); format: cell-based; details: Table 7; cAMP formation
T2 construct: expressed in transfected cells
Experimental: as §1

[3] = molecular target: T3, human glucagon receptor (hGLUC R) (Homo sapiens, UniProt P47871); test: cAMP response of HEK-293 cells stably expressing human glucagon receptor (HTRF); format: cell-based; details: Table 7; cAMP formation
T3 construct: expressed in transfected cells
Experimental: as §1

[4] = molecular target: T4, human GIP receptor (human, UniProt P48546 22-466); test: cell-based or functional assay
T4 sequence (looked up): T1 sequence (P48546 22-466)

[5] = molecular target: human glucagon receptor (human, UniProt P47871 26-477); test: cell-based or functional assay
[6] = molecular target: human GLP-1 receptor (human, UniProt P43220 24-463); test: cell-based or functional assay

T2 sequence (P43220 24-463): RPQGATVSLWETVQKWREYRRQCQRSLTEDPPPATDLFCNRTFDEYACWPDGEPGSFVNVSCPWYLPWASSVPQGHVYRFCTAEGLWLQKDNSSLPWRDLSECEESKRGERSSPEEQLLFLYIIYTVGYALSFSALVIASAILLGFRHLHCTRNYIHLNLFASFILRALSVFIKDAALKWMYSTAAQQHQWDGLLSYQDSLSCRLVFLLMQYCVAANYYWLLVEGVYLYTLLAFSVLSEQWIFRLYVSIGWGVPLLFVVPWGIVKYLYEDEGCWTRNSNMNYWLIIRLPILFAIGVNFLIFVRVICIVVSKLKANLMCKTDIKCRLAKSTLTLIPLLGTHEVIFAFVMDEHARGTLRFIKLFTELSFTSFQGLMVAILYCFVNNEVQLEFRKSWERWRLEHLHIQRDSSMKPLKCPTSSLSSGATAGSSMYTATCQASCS
T3 sequence (P47871 26-477): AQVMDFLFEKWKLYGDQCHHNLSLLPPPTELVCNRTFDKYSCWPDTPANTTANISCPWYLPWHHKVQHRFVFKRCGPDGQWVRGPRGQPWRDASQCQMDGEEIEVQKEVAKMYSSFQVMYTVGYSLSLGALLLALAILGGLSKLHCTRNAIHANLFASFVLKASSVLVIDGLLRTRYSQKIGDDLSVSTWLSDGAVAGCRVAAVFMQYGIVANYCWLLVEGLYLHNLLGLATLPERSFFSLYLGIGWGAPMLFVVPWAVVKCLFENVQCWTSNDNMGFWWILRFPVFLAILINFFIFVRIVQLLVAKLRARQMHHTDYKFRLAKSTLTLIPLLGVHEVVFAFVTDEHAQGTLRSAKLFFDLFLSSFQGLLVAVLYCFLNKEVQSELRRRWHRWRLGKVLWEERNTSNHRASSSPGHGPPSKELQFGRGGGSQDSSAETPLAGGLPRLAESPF
Chain of human glucagon receptor (P47871 26-477): as above

| Molecule | EC50 [1] [nM] | EC50 [2] [nM] | EC50 [3] [nM] | EC50 hGIP R [4] [nM] | EC50 hGLUC R [5] [nM] | EC50 hGLP-1 R [6] [nM] |
| --- | --- | --- | --- | --- | --- | --- |
| CCCCCCCCCCCCCCCC(=O)N[C@@H](CCC(=O)NCCCC[C@H](NC(=O)[C@H](CCC(N)=O)NC(=O)[C@H](CCCCN)NC(=O)[C@H](CO)NC(=O)[C@H](CC(C)C)NC(=O)[C@H](CC(=O)O)NC(=O)[C@H](CO)NC(=O)[C@@H](NC(=O)[C@H](Cc1ccccc1)NC(=O)[C@@H](NC(=O)CNC(=O)[C@H](CCC(N)=O)NC(=O)C(C)(C)NC(=O)[C@@H](N)Cc1ccc(O)cc1)[C@@H](C)O)[C@@H](C)O)C(=O)N[C@@H](CCC(=O)O)C(=O)N[C@@H](CO)C(=O)N[C@@H](CCCCN)C(=O)N[C@@H](C)C(=O)N[C@@H](C)C(=O)N[C@@H](CCC(N)=O)C(=O)N[C@@H](CC(=O)O)C(=O)N[C@@H](Cc1ccccc1)C(=O)N[C@H](C(=O)N[C@@H](CCC(=O)O)C(=O)N[C@@H](Cc1c[nH]c2ccccc12)C(=O)N[C@@H](CC(C)C)C(=O)N[C@@H](CCCCN)C(=O)N[C@@H](C)C(=O)NCC(=O)NCC(=O)N1CCC[C@H]1C(=O)N[C@@H](CO)C(=O)N[C@@H](CO)C(=O)NCC(=O)N[C@@H](C)C(=O)N1CCC[C@H]1C(=O)N1CCC[C@H]1C(=O)N1CCC[C@H]1C(=O)N[C@@H](CO)C(N)=O)[C@@H](C)CC)C(=O)O [SEQ ID NO: 39, Y-Aib-Q-G-T-F-T-S-D-L-S-K-Q-K(yE-x53)-ESKAAQDFIEWLKAGGPSSGAPPPS-NH2] (H-Y[Aib]QGTFTSDLSKQK([γGlu-Palmitoyl])ESKAAQDFIEWLKAGGPSSGAPPPS-NH2) | 0.0385 | 0.0045 | 0.0192 |  |  |  |
| CCCCCCCCCCCCCCCCCC(=O)N[C@@H](CCC(=O)NCCCC[C@H](NC(=O)[C@H](CCC(N)=O)NC(=O)[C@@H](NC(=O)[C@H](CO)NC(=O)[C@H](CC(C)C)NC(=O)[C@H](CC(=O)O)NC(=O)[C@H](CO)NC(=O)[C@@H](NC(=O)[C@H](Cc1ccccc1)NC(=O)[C@@H](NC(=O)CNC(=O)[C@H](CCC(=O)O)NC(=O)C(C)(C)NC(=O)[C@@H](N)Cc1ccc(O)cc1)[C@@H](C)O)[C@@H](C)O)[C@@H](C)CC)C(=O)N[C@@H](CCC(=O)O)C(=O)N[C@@H](CCC(=O)O)C(=O)N[C@@H](CCCNC(=N)N)C(=O)N[C@@H](C)C(=O)N[C@H](C(=O)N[C@@H](CCCNC(=N)N)C(=O)N[C@@H](CC(C)C)C(=O)N[C@@H](Cc1ccccc1)C(=O)N[C@H](C(=O)N[C@@H](CCC(=O)O)C(=O)N[C@@H](Cc1c[nH]c2ccccc12)C(=O)N[C@@H](CC(C)C)C(=O)N[C@@H](CCCCN)C(=O)N[C@@H](C)C(=O)NCC(=O)NCC(=O)N1CCC[C@H]1C(=O)N[C@@H](CO)C(=O)N[C@@H](CO)C(=O)NCC(=O)N[C@@H](C)C(=O)N1CCC[C@H]1C(=O)N1CCC[C@H]1C(=O)N1CCC[C@H]1C(=O)N[C@@H](CO)C(N)=O)[C@@H](C)CC)C(C)C)C(=O)O [SEQ ID NO: 64, Y-Aib-E-G-T-F-T-S-D-L-S-I-Q-K(yE-x70)-EERAVRLFIEWLKAGGPSSGAPPPS-NH2] (H-Y[Aib]EGTFTSDLSIQK([γGlu-Stearoyl])EERAVRLFIEWLKAGGPSSGAPPPS-NH2) | 0.0096 |  | 75.1 |  |  |  |
| CCCCCCCCCCCCCCCC(=O)N[C@@H](CCC(=O)NCCCC[C@H](NC(=O)[C@H](CCC(N)=O)NC(=O)[C@@H](NC(=O)[C@H](CO)NC(=O)[C@H](CC(C)C)NC(=O)[C@H](CC(=O)O)NC(=O)[C@H](CO)NC(=O)[C@@H](NC(=O)[C@H](Cc1ccccc1)NC(=O)[C@@H](NC(=O)CNC(=O)[C@H](CCC(=O)O)NC(=O)C(C)(C)NC(=O)[C@@H](N)Cc1ccc(O)cc1)[C@@H](C)O)[C@@H](C)O)[C@@H](C)CC)C(=O)N[C@@H](CC(=O)O)C(=O)N[C@@H](CCCCN)C(=O)N[C@@H](CCCNC(=N)N)C(=O)N[C@@H](CCCCN)C(=O)N[C@@H](C)C(=O)N[C@@H](CCC(N)=O)C(=O)N[C@@H](CC(=O)O)C(=O)N[C@@H](Cc1ccccc1)C(=O)N[C@H](C(=O)N[C@@H](CCC(=O)O)C(=O)N[C@@H](Cc1c[nH]c2ccccc12)C(=O)N[C@@H](CC(C)C)C(=O)N[C@@H](CCCCN)C(=O)N[C@@H](CC(N)=O)C(=O)NCC(=O)NCC(=O)N1CCC[C@H]1C(=O)N[C@@H](CO)C(=O)N[C@@H](CO)C(=O)NCC(=O)N[C@@H](C)C(=O)N1CCC[C@H]1C(=O)N1CCC[C@H]1C(=O)N1CCC[C@H]1C(=O)N[C@@H](CO)C(N)=O)[C@@H](C)CC)C(=O)O [SEQ ID NO: 54, Y-Aib-E-G-T-F-T-S-D-L-S-I-Q-K(yE-x53)-DKRKAQDFIEWLKNGGPSSGAPPPS-NH2] (H-Y[Aib]EGTFTSDLSIQK([γGlu-Palmitoyl])DKRKAQDFIEWLKNGGPSSGAPPPS-NH2) |  | 0.0668 | 2.62 |  |  |  |
| CCCCCCCCCCCCCCCC(=O)N[C@@H](CCC(=O)NCCCC[C@H](NC(=O)[C@H](CCC(N)=O)NC(=O)[C@@H](NC(=O)[C@H](CO)NC(=O)[C@H](CC(C)C)NC(=O)[C@H](CC(=O)O)NC(=O)[C@H](CO)NC(=O)[C@@H](NC(=O)[C@H](Cc1ccccc1)NC(=O)[C@@H](NC(=O)CNC(=O)[C@H](CCC(N)=O)NC(=O)C(C)(C)NC(=O)[C@@H](N)Cc1ccc(O)cc1)[C@@H](C)O)[C@@H](C)O)[C@@H](C)CC)C(=O)N[C@@H](CC(=O)O)C(=O)N[C@@H](CCCCN)C(=O)N[C@@H](CCCNC(=N)N)C(=O)N[C@@H](C)C(=O)N[C@H](C(=O)N[C@@H](CCC(N)=O)C(=O)N[C@@H](CC(C)C)C(=O)N[C@@H](Cc1ccccc1)C(=O)N[C@H](C(=O)N[C@@H](CCC(=O)O)C(=O)N[C@@H](Cc1c[nH]c2ccccc12)C(=O)N[C@@H](CC(C)C)C(=O)N[C@@H](CCCCN)C(=O)N[C@@H](CC(N)=O)C(=O)NCC(=O)NCC(=O)N1CCC[C@H]1C(=O)N[C@@H](CO)C(=O)N[C@@H](CO)C(=O)NCC(=O)N[C@@H](C)C(=O)N1CCC[C@H]1C(=O)N1CCC[C@H]1C(=O)N1CCC[C@H]1C(=O)N[C@@H](CO)C(N)=O)[C@@H](C)CC)C(C)C)C(=O)O [SEQ ID NO: 47, Y-Aib-Q-G-T-F-T-S-D-L-S-I-Q-K(yE-x53)-DKRAVQLFIEWLKNGGPSSGAPPPS-NH2] (H-Y[Aib]QGTFTSDLSIQK([γGlu-Palmitoyl])DKRAVQLFIEWLKNGGPSSGAPPPS-NH2) |  | 0.0156 | 2.39 |  |  |  |
| B1 |  |  |  | 0.0121 | 12.1 | 0.0066 |
